Laboratory results: patent US10959998B2, “Pharmaceutical use and pharmaceutical composition of pyrroloquinoline quinine, its derivatives and/or its salts” (priority 2015, dated 2021)

What was measured:
cysts of EM patients = details: after three months of treatment with NAC; cited from earlier work
ectopic endometrial foci = test: Endometriosis rat model, weight of transplanted foci; type: in vivo, SD rats; details: for weight of ectopic endometrial foci compared with the control group / weight of cysts after treatment (mg) Mean ± SD: Example 5, rats; for weight of cysts after treatment (mg) Mean ± SD: water feeding 4 week, PQQ 1 mg/kg, NAC 10 mg/kg, Resveratro 10 mg/kg, n=9
[1] = tested on: infiltration of endometrial stroma and glands into myometrium; test: Adenomyosis mouse model created with tamoxifen, pathological section; type: in vivo, mice
Method: Disodium salt of PQQ was used in the present experiment (PQQ-Na2, donated by MITSUBISHI gas chemical (MGC), Japan). The salt was dissolved with water and the concentration of its mother liquid is 1 mg/mL.
In the present Example, the mouse model of adenomyosis was created with tamoxifen. This method is easy to operate, the rate of molding can reach 100%, and the difference between the model mouses caused by the operation is small. At 2˜5 days after birth (the birth day was the first day), the mice were fed with 5 ul/(g·BW) peanut oil/lecithin/condensed milk mixture (volume ratio 2:0.2:3) supplemented with 0.2 mg/ml tamoxifen (produced by shanghai Fudan Fuhua Pharmaceutical Co, Ltd.) by drip feeding. In the negative control group, the mice were fed with peanut oil/lecithin/condensed milk mixture (volume ratio 2:0.2:3), with no tamoxifen added. All the mice were exposed to light for 12 h/day, and were reared by maternal lactation during 1-21 days of age. After 22 days of birth, the mice were separated with mother mice, and the female mice were reserved for the next experiment.
After 3 months, 7 model mice were killed after anesthesia. […] The remaining model mice were divided into 5 groups with 20 mice in each group. One of the groups was chosen as model control group (fed with normal water). The drinking water for other group were supplemented with PQQ (1 mg/kg/day), NAC (10 mg/kg/day), PQQ (1 mg/kg/day) +NAC (10 mg/kg/day) (denoted by P+N (H)); PQQ (0.2 mg/kg/day) +NAC (5 mg/kg/day) (denoted by P+N (L)).
After treatment with drugs for 4 weeks, the mice were killed by anesthesia. The uterus was surgically removed and the invasion of endometria into myometrium was analyzed by the pathological section.

[2] = tested on: ectopic endometrial stromal cells; details: NAC 10 mM, report of Ngo et al. 2009; cited from earlier work
[3] = tested on: ectopic endometrial stromal cells; test: MTT cell proliferation of ectopic endometrial stromal cells; type: cell-based, human
Method: Endometrial tissues were surgically isolated from patients with chocolate cyst of ovary, washed 2 to 3 times with PBS supplemented with antibiotics in ultra-clean cabinet, and cut into tiny pieces (about 1 mm^3 in size) with aseptic scissors. The tissues were digested with 1 mg/ml collagenase type I for 30 to 90 min at 37° C., and continually digested with Dnase I (final concentration of 15 U/ml, 2% Dnase I) for another 30 min. The digested tissues were filtered thorough 60-mesh stainless steel filter cell strainer to remove the undigested cell tissues, and were further filtered with 200- or 400-mesh strainer. The filtered solution was centrifuged at 1000 rpm for 5 min. After removing the supernatants, the cells were washed once with culture medium compounded by DMEM/F12 (1:1 v/v) and 10% fetal bovine serum, re-suspended in the culture medium, and seeded in 6-well tissue culture plate or T25 tissue culture flasks with an appropriate density. After 24 hours incubation, the culture medium was changed to remove the non-adherent blood cells, endothelial cells, macrophages and other miscellaneous cells. After primary human endometrial stromal cells were grown to reach 90% confluence, the cells were digested with 0.25% trypsin for 4 to 6 min, and then subcultured with a split ratio of 1:2 to 1:3. Vimentin which expresses specifically in stromal cells was detected by immuno-fluorescence to measure the cell purity. The cells of purity >95% were used in the following experiments. Primary ectopic endometrial stromal cells of human were subcultured and the subcultured cells of the 3th to 6th passages were chosen as experimental subjects. The cells in logarithmic growth phase were […] and incubated in the cell culture plate at a density of 50%˜60% (i.e. 2×10^4 cells/well). After growing adherent on the wall for 24 hours, the cultured cells were divided into groups and each group was given different doses of PQQ. 20 μL MTT (5 mg/ml in PBS, pH=7.4) was added to each well at indicated time points. The cells were incubated in an incubator at 37° C. in a 5% CO2 atmosphere for 4 h. At the end of incubation, the culture supernatant in each cell was carefully aspirated away. 150 μL DMSO was added to each well. Then the wells were shaken with Orbital shaker for 10 min. The absorbance of each cell was detected at wavelength 490 nm. Finally, the cell proliferation curve was drawn. Primary ectopic endometrial stromal cells were cultured and the subcultured cells of the 3th to 6th passage were chosen as experimental subjects. The cells in logarithmic growth phase were […] and incubated in the cell culture plate at a of 50%˜60% (e.g. 2×10^4 cells/well). The cells grew adhering to the wall for 24 hours before being treated with drugs. The cells were divided into groups and each group was given different dose of PQQ. At indicated time point, 20 μL […] (5 mg/ml in PBS, pH=7.4) was added to every well. The cells were then incubated in an incubator at 37° C. in a 5% CO2 atmosphere for 4 h. After terminating incubation, the culture supernatant in each cell was carefully aspirated away, but formazan crystals should not be aspirated away in any case. 150 μL DMSO was added to each well respectively. All the wells were shaken with Orbital shaker for 10 min to make the crystals adequately solubilized. The absorbance of each cell was detected at wavelength 490 nm. Finally, the cell proliferation curve was drawn.

EM lesions = details: cited from earlier work; for lesion of EM model mice: Ricci et al. 2013, by antioxidation effect
[4] = 4 weeks in drinking water, PQQ (disodium salt) 1 mg/kg/day, NAC 10 mg/kg/day, P+N (H) 1+10, P+N (L) 0.2+5 mg/kg/day

Row | Compound | cysts sizes within EM patients (cysts of EM patients) | weight of ectopic endometrial foci compared with the control group (ectopic endometrial foci; after 4 weeks treatment) | weight of cysts after treatment (mg) Mean ± SD (ectopic endometrial foci) [mg] | weight of ectopic cys after treatment (mg) Mean ± SD (ectopic endometrial foci; Example 7, rats, 4 weeks in drinking water, PQQ (disodium salt) 1 mg/kg/day, NAC 10 mg/kg/day, P+N (H) 1+10, P+N (L) 0.2+5 mg/kg/day, n=12) [mg] | weight of ectopic cyst compared with model control group (ectopic endometrial foci; Example 7, rats, after 4 weeks treatment, PQQ as disodium salt) | infiltration of endometrial glands, positive animals/total animals [1, 4] | infiltration of endometrial stroma, positive animals/total animals [1, 4] | number of animals with infiltration of endometrial stroma and glands compared with model control group ([1]; after 4 weeks treatment, PQQ as disodium salt) | proliferation of ectopic endometrial stromal cells [2] | cell proliferation ([3]; NAC 10 um alone) | cell proliferation ([3]; NAC 100 um alone) | growth of EM lesions (EM lesions; mouse models of endometriosis, NAC daily dose 1.3 g/kg/day) | lesion of EM model mice (EM lesions)
1 | CC(=O)N[C@@H](CS)C(=O)O [NAC, N-acetyl-L-cysteine] | cysts sizes within EM patients were reduced significantly | no evident difference from that of the control group | 138.1 ± 33.1 | 142.1 ± 13.4 | no obvious difference with the control group | 18/20 | 19/20 | no obvious difference with the control group | inhibit the proliferation of ectopic endometrial stromal cells | no evident effect | effectively inhibit the cell proliferation | significantly inhibit the growth of EM lesions | –
2 | Oc1ccc(C=Cc2cc(O)cc(O)c2)cc1 [Res, Resveratrol] | – | no evident difference from that of the control group | 122.1 ± 30.7 | – | – | – | – | – | – | – | – | – | effectively inhibit the lesion of EM model mice
3 | Epigallocatechin-3-gallate [EGCG] | – | – | – | – | – | – | – | – | – | – | – | – | effectively inhibit the lesion of EM model mice
